# Test results as given in BindingDB's records for doi:10.1016/s0960-894x(00)00360-7 (Smithkline Beecham Pharmaceuticals, 2000).
# pIC50: −log10 of the molar value.
# Molecular target: Arginine--tRNA ligase (Staphylococcus aureus)
# Experiment: Inhibitory activity against cognate Staphylococcus aureus Arginyl-tRNA synthetase
compound,measurement,value
N=C(N)NCCC[C@H](N)C(=O)NS(=O)(=O)OC[C@H]1O[C@@H](n2cnc3c(N)ncnc32)[C@H](O)[C@@H]1O [Aminoalkyl adenylate and aminoacyl sulfamate analogue],pIC50,8.35
